Test results taken from US20080108698A1, “Nutrient Supplement and Use of the Same” (OY ELMOMED LTD, priority 2004, published 2008).
Values joined by “and” are separate entries in the source; they are usually repeats but may differ in a detail not shown here. Equal values may be shown once.

Columns and labels:
[1] = Example 1: blood pressure, heart rate and clinical chemistry before and after HICA; type: in vivo, human; conditions: n = 7, after 42 days
Description: (§1) In order to assess the effects of HICA (α-hydroxy-isocaproic acid) on exercise induced muscle pain and body composition, 0.496 g of HICA (produced in VTT Technical Research Centre of Finland, Helsinki) was given thrice daily after intensive training sessions to 7 healthy volunteers for 42 days in an open study. The volunteers were national top wrestlers, weighing 79.7+/−4.5 kg (mean+/−SD) and aging 26+/−6 years (mean+/−SD). They had at least 10 training sessions a week, each lasting from 1.5 to 2.5 hours. Before the study the subjects underwent a medical examination. Twenty ml of blood was taken for chemical assays and the body weight and body composition were assessed by dual-energy X-ray absorptiometry (DEXA; LUNAR GE Medical Systems) just before starting the 42-day HICA intake. The subjects took HICA orally as liquid (62.5 g HICA dissolved in 630 ml water and buffered by NaOH to pH 3.8). The single dose taken three times a day after each training session was 5 ml (containing […] of HICA) of the solution mixed with apple juice. On those days they had less than three training session they took extra doses of HICA so that 3 doses were taken each day. The total daily dose was 1488 mg of HICA.

[2] = Example 2: subjective muscle aches and laboratory tests; type: in vivo, human; conditions: one basket ball player
Method: (§2) A basket ball player (weight 83.7 kg; BMI 26.8 kg/m^2) took after intensive daily training sessions 0.496 g of HICA three times a day for 42 days in an identical design as described in Example 1. The composition of their soft tissue was analyzed in detail. DEXA-results were analyzed by a software discriminating successfully between bone, fat and lean body mass.

[3] = commercially available colorless crystals; cited from earlier work
[4] = Example 1: subjects' reports of muscle pain, stiffness, aches, power performance and adverse effects; type: in vivo, human
Description: In order to assess the effects of HICA (α-hydroxy-isocaproic acid) on exercise induced muscle pain and body composition, 0.496 g of HICA (produced in VTT Technical Research Centre of Finland, Helsinki) was given thrice daily after intensive training sessions to 7 healthy volunteers for 42 days in an open study. The volunteers were national top wrestlers, weighing 79.7+/−4.5 kg (mean+/−SD) and aging 26+/−6 years (mean+/−SD). They had at least 10 training sessions a week, each lasting from 1.5 to 2.5 hours.
The subjects took HICA orally as liquid (62.5 g HICA dissolved in 630 ml water and buffered by NaOH to pH 3.8). The single dose taken three times a day after each training session was 5 ml (containing […] of HICA) of the solution mixed with apple juice. On those days they had less than three training session they took extra doses of HICA so that 3 doses were taken each day. The total daily dose was 1488 mg of HICA.
Subjects were asked to report all feelings they would associate with the treatment with HICA, e.g. pain, stiffness or aches in muscles felt during and after the training sessions.

[5] = Example 2: basket ball player case study, body composition by DEXA; type: in vivo, human
Method: as §2

[6] = Example 1: open 42-day study in top wrestlers, body weight and body composition by DEXA; type: in vivo, human
Description: as §1, with “hours. During 6 weeks preceding the HICA period there were no essential changes in the body weight of the wrestlers. At least for 6 weeks before and during the trial daily diets and the number, intensity, and length of daily training sessions were kept constant.” for “hours.”

[7] = as above; type: in vivo, human; conditions: individual subjects 1-7; after 42 days, 0.496 g thrice daily orally
mice = conditions: iv. in mice, Na-salt; cited from earlier work
[8] = Barlas et al.; 11-day study period, 60 study subjects; cited from earlier work
[9] = Trappe et al. 2002; cited from earlier work
[10] = after vs before 42-day treatment
[11] = one basketball player, after 42-day treatment
[12] = individual subjects 1-7, after 42 days
[13] = individual subjects 1-7, after 42 days, DEXA
[14] = mean of 7 subjects, after 42 days, P < 0.05 vs before

In the case of `CC(C)CC(O)C(=O)O` (racemic) [HICA, DL-α-hydroxy-isocaproic acid], the “B-Erythrocytes, After HICA, mean” value ([1]; NS) was 4.9 E12/l, the “B-Hematocrite, After HICA, mean” value ([1]; NS) was 42.6% and the “B-Hemoglobin, After HICA, mean” value ([1]; NS) was 149.1 g/L. The “B-Leucocytes, After HICA, mean” value ([1]; NS) was 5.7 E9/l, the “E-MCH, After HICA, mean” value ([1]; NS) was 30.4 pg and the “E-MCHC, After HICA, mean” value ([1]; NS) was 347.9 g/L. The “E-MCV, After HICA, mean” value ([1]; NS) was 87.4 fL, the “S-Alanine amino transferase, After HICA, mean” value ([1]; NS) was 31.6 U/l and the fS-Creatinine, After HICA, mean ([1]; NS) was 89.2 µM. For the same compound, the “heart rate, After HICA, mean” value ([1]; NS) was 62.0 min⁻¹, the “diastolic blood pressure, After HICA, mean” value ([1]; P < 0.01 vs before) was 75.7 mmHg and the “systolic blood pressure, After HICA, mean” value ([1]; P < 0.05 vs before) was 139.7 mmHg. The “exercise related muscle aches and pains (subjective report)” value ([2]; 42 days) was “disappearance of all exercise related muscle aches and pains”, the “laboratory tests, e.g. blood pressure, heart rate or blood analyses” value ([2]; data not shown) was “no changes” and the solubility [3] was “soluble in water and alcohols”. For the same compound, the adverse effects ([4]; 42-day treatment, 7 top athletes) was “without any adverse effects”, the “pain, stiffness and aches in muscles felt during and after the training sessions (subjects' reports)” value ([4]; all 7 subjects, 42-day treatment) was “abolishment of pain, stiffness and aches in muscles” and the “subjects reporting enhanced power performance” value ([4]; subjective, after the treatment with HICA) was 6 out of 7. The “gain of lean body mass during the treatment” value ([5]; DEXA, one basket ball player, 42 days) was 2.65 kg, the “bone, Change” value [5, 10] was “+0.0 g” and the fat, Change [5, 10] was 0.3 kg. For the same compound, the lean, extremities, Change [5, 10] was 1.6 kg, the “lean, other, Change” value [5, 10] was “+0.0 g” and the “lean, total, Change” value [5, 10] was “+2.7 g”. For the same compound, the lean, trunk, Change [5, 10] was 1 kg, the weight, Change [5, 10] was 3 kg and the “bone, After HICA” value [5, 11] was 4.1 kg. For the same compound, the “fat, After HICA” value [5, 11] was 8.1 kg, the “lean, extremities, After HICA” value [5, 11] was 34.8 kg and the “lean, other, After HICA” value [5, 11] was 4.3 kg. The “lean, total, After HICA” value [5, 11] was 74.4 kg, the “lean, trunk, After HICA” value [5, 11] was 35.45 kg and the “weight, After HICA” value [5, 11] was 86.6 kg. The “change of bone weight (DEXA)” value ([6]; 42-day treatment, 7 subjects) was “not changed”, the “change of total soft tissue mass (total weight - bone weight)” value ([6]; 42-day treatment, P<0.05, paired t-test) was “increased significantly” and the “change of soft tissue masses of all extremities and trunk” value ([6]; 42-day treatment, P<0.05 and P<0.001, respectively) was “increased significantly”. The “Total weight of soft tissue in extremities, After HICA” value [6, 12] was 33.2 kilograms and 35.7 kilograms (2×) and 34.7 kilograms and 38.5 kilograms and 35.2 kilograms and 39.0 kilograms, the “Total weight of soft tissue in trunk, After HICA” value [6, 12] was 38.0 kilograms and 38.3 kilograms and 39.7 kilograms and 40.4 kilograms and 43.1 kilograms and 39.8 kilograms and 44.8 kilograms and the “Bone weight, After HICA” value [6, 13] was 4.1 kilograms (2×) and 4.4 kilograms and 4.0 kilograms (2×) and 3.6 kilograms and 3.9 kilograms. The “Soft tissue weight, After HICA” value [6, 13] was 75.0 kilograms and 83.7 kilograms and 71.2 kilograms and 74.0 kilograms and 75.4 kilograms and 75.1 kilograms and 81.6 kilograms, the “Total weight of soft tissue in trunk, After HICA, mean” value ([6]; mean of 7 subjects, after 42 days, P < 0.001 vs before) was 40.6 kilograms and the “Soft tissue weight, After HICA, mean” value [6, 14] was 76.6 kilograms. The “Total weight of soft tissue in extremities, After HICA, mean” value [6, 14] was 36.0 kilograms, the “Whole body weight, After HICA, mean” value [6, 14] was 80.57 kilograms and the “Bone weight, After HICA, mean” value ([6]; mean of 7 subjects, after 42 days, nonsignificant vs before) was 4.0 kilograms. For the same compound, the “mean weight gain during the treatment period” value ([6]; mean+/-SD, 7 subjects, 42-day treatment, P<0.05 paired t-test) was 0.8 kg and 0.84 ± 1.0 kg, the “Whole body weight, After HICA” value [7] was 79.1 kilograms and 88.1 kilograms and 75.2 kilograms and 77.6 kilograms and 79.3 kilograms and 79 kilograms and 85.7 kilograms and the LD50 (mice) was 650 mg/kg.

For `CC(=O)Oc1ccccc1C(=O)O` [aspirin], the “effect on delayed-onset muscle soreness induced by eccentric exercise” value (shortened to “effect … by eccentric exercise”) [8] is given as “neither aspirin, paracetamol nor codeine had a beneficial effect”.

In the case of `COc1ccc2c3c1O[C@H]1[C@@H](O)C=C[C@H]4[C@@H](C2)N(C)CC[C@@]341` [codeine], the “effect … by eccentric exercise” value [8] is given as “neither aspirin, paracetamol nor codeine had a beneficial effect”.

In the case of `CC(C)Cc1ccc(C(C)C(=O)O)cc1` (centres unmarked) [ibuprofen], the “effect on eccentric resistant training induced muscle soreness” value [9] is given as “Neither ibuprofen nor paracetamol reduced eccentric resistant training induced muscle soreness”.

For `CC(=O)Nc1ccc(O)cc1` [paracetamol], the “effect on eccentric resistant training induced muscle soreness” value [9] is listed as “Neither ibuprofen nor paracetamol reduced eccentric resistant training induced muscle soreness” and the “effect … by eccentric exercise” value [8] is listed as “neither aspirin, paracetamol nor codeine had a beneficial effect”.
